Numbers after ± are expanded uncertainties.

As usually defined, the refractive index is the speed of light in vacuum divided by its phase velocity in the sample. As a reminder, the mass density is the mass of a sample divided by its volume.

Data set [1] is described as follows: refractive index (Na D-line) (dimensionless). Particulars: 101.33 kPa, Liquid, Standard Abbe refractometry.
For data set [2] the following is noted: 101.33 kPa, Liquid, Vibrating tube method.
Data set [3] can be described thus: refractive index (Na D-line) (dimensionless); wn = mass fraction of the nth substance listed. The following applies: 81.5 kPa, Liquid, Standard Abbe refractometry.

Turning to `O` [water], the values for the refractive index in data set [1] (293.2 K), in data set [1] (298.2 K) and in data set [1] (303.2 K) were 1.33305 ± 0.00049, 1.3325 ± 0.00049 and 1.33195 ± 0.00049, respectively.
Consider `CC(C)=O` [acetone], for which the mass density was 790.66 ± 1.6 kg/m3 in data set [2] (293.2 K), 784.4 ± 1.6 kg/m3 in data set [2] (298.2 K) and 778.7 ± 1.6 kg/m3 in data set [2] (303.2 K). The refractive index in data set [1] (293.2 K) is 1.3588 ± 0.00051; in data set [1] (298.2 K), 1.35575 ± 0.00051; in data set [1] (303.2 K), 1.35265 ± 0.00051.
Consider `CCCCCCn1cc[n+](C)c1.F[P-](F)(F)(F)(F)F` [1-hexyl-3-methylimidazolium hexafluorophosphate], for which the mass density in data set [2] (293.2 K) amounted to 1294.91 ± 2.6 kg/m3; in data set [2] (298.2 K) it was 1290.88 ± 2.6 kg/m3; in data set [2] (303.2 K), 1286.85 ± 2.6 kg/m3. Also, the figures for the refractive index in data set [1] (293.2 K), in data set [1] (298.2 K) and in data set [1] (303.2 K) were 1.4176 ± 0.00053, 1.4164 ± 0.00053 and 1.41515 ± 0.00053, respectively.
With `CCCCCCn1cc[n+](C)c1.F[P-](F)(F)(F)(F)F` [1-hexyl-3-methylimidazolium hexafluorophosphate] + O, the refractive index in data set [3] (293.2 K, w2 = 0.0142) came out at 1.4164 ± 0.001; in data set [3] (293.2 K, w2 = 0.993), 1.3334 ± 0.00077; in data set [3] (298.2 K, w2 = 0.0161), 1.41525 ± 0.00099; in data set [3] (298.2 K, w2 = 0.9924) it was 1.3332 ± 0.0008; in data set [3] (303.2 K, w2 = 0.0164), 1.4135 ± 0.00098; in data set [3] (303.2 K, w2 = 0.9914), 1.33345 ± 0.00086.

The values are drawn from the NIST ThermoML archive (doi:10.1016/j.jct.2015.08.027).
